Measured values from PMC4057736, “In Vitro Antiprotozoal Activity of Abietane Diterpenoids Isolated from Plectranthus barbatus Andr” (International Journal of Molecular Sciences, 2014).
“Also recorded” adds a separate entry of the source. Like-named read-outs stand apart in the source and are kept apart here.

Tests used:
[1] = system: Chloroquine-resistant P. falciparum 2/K 1-strain (erythrocytic schizonts); assay: Antiplasmodial activity (Malstat method); type: cell-based, Plasmodium falciparum; conditions: for IC50: Plasmodium falciparum, 72 h, read-out: P. falciparum IC50
Protocol: (§1) The integrated panel of microbial screens and standard screening methodologies were adopted as previously described. All assays were performed in triplicate, at the Laboratory of Microbiology, Parasitology and Hygiene at the University of Antwerp, Belgium. […] The selectivity antiprotozoal potential was assessed by simultaneous evaluation of cytotoxicity on a fibroblast (MRC-5) cell line.
Chloroquine-resistant P. falciparum 2/K 1-strain was cultured in human erythrocytes O^+ at 37 °C under a low oxygen atmosphere (3% O2, 4% CO2, and 93% N2) in RPMI-1640, supplemented with 10% human serum. Infected human red blood cells (200 μL, 1% parasitaemia, 2% haematocrit) were added to each well and incubated for 72 h. After incubation, test plates were frozen at −20 °C. Parasite multiplication was measured by the Malstat method.

[2] = system: L.infantum MHOM/MA(BE)/67 amastigotes; assay: Antileishmanial activity, intracellular amastigotes in primary peritoneal mouse macrophages; type: cell-based, Leishmania infantum; conditions: for IC50: Leishmania infantum, Macrophage, 120 h, read-out: L. infantum IC50
Protocol: as §1
L.infantum MHOM/MA(BE)/67 amastigotes were collected from the spleen of an infected donor hamster and used to infect primary peritoneal mouse macrophages. To determine in vitro antileishmanial activity, 3 × 10^4 macrophages were seeded in each well of a 96-well plate. After 2 days outgrowth, 5 × 10^5 amastigotes/well were added and incubated for 2 h at 37 °C. Pre-diluted plant extracts were subsequently added and the plates were further incubated for 5 days at 37 °C and 5% CO2. Parasite burdens (mean number of amastigotes/macrophage) were microscopically assessed after Giemsa staining, and expressed as a percentage of the blank controls without plant extract.

[3] = system: T. cruzi Tulahuen CL2 (benznidazole-sensitive); assay: Antitrypanosomal activity (Chagas), β-galactosidase readout on MRC-5 cells; type: cell-based, Trypanosoma cruzi; conditions: for IC50: Trypanosoma cruzi, MRC5, 168 h, read-out: T. cruzi IC50
Protocol: as §1
(§2) About 1.5 × 10^4 trypomastigotes/well were added to each well and parasite growth was assessed after 72 h at 37 °C by adding resazurin [30]. […] The color reaction was read at 540 nm after 4 h and absorbance values were expressed as a percentage of the blank controls.

[4] = system: Trypanosoma brucei Squib-427 strain (suramin-sensitive) trypomastigotes; assay: Antitrypanosomal activity, resazurin readout; type: cell-based; conditions: for IC50: Trypanosoma brucei, 72 h, read-out: T. brucei IC50; for T. brucei SI (selectivity index): versus MRC-5 cytotoxicity
Protocol: as §1, §2

[5] = Cytotoxicity assay (resazurin); type: cell-based; conditions: human, MRC-5 cells
Protocol: as §1
For the assay, 10^4 MRC-5 cells/well were seeded onto the test plates containing the pre-diluted sample and incubated at 37 °C and 5% CO2 for 72 h. Cell viability was assessed fluorimetrically after 4 h of addition of resazurin. Fluorescence was measured (excitation 550 nm, emission 590 nm) and the results were expressed as % reduction in cell viability compared to control.

[6] = system: all protozoa species (P. falciparum, L. infantum, T. cruzi, T. brucei); assay: Antiprotozoal activity, statement pooled over all protozoa species tested; type: cell-based; conditions: for IC50: pooled over P. falciparum, L. infantum, T. cruzi, T. brucei, read-out: IC50 against all protozoa species
Protocol: as §1

[7] = chloroquine-resistant 2/K 1-strain
[8] = intracellular amastigotes in mouse macrophages, 5 days
[9] = Tulahuen CL2 on MRC-5 cells, 7 days
[10] = MRC-5 SV2 cells (fibroblast cell line)

SMILES | IC50 [1, 7] [µM] | IC50 [2, 8] [µM] | IC50 [3, 9] [µM] | IC50 ([4]; Squib-427 trypomastigotes) [µM] | IC50 at 72 h [5, 10] [µM] | IC50 [6] [µM] | further results
CC(C)c1ccc2c(c1)CC[C@H]1C(C)(C)CCC[C@]21C [Compound (1), dehydroabietane] | 124 ± 4.7 | > 237 | > 237 | > 237 | > 237 | > 100 | L. infantum SI (selectivity index) ([2]; versus MRC-5 cytotoxicity): > 1; T. cruzi SI (selectivity index) ([3]; versus MRC-5 cytotoxicity): >1; T. brucei SI (selectivity index) [4]: >1; antiprotozoal activity (in words) ([6]; overall verdict over all protozoa tested): no activity against all protozoal strains; also recorded: no antiprotozoal potential
CC(C)c1cc2c(c(O)c1O)C13CCCC(C)(C)C1C(O)C2OC3 (stereo not drawn) [Compound (5), 6α,11,12,-trihydroxy-7β,20-epoxy-8,11,13-abietatriene] | 31.6 ± 1.9 | 24.4 ± 3.2 | 24.4 ± 3.2 | 15.9 ± 1.4 | 5.7 ± 0.9 | 6 to 31.6 | 
CCN(CC)CCCC(C)Nc1ccnc2cc(Cl)ccc12 (stereo not shown) [Chloroquine, reference compound] |  |  |  |  |  |  | IC50 [1]: 0.04 ± 0.01 µM
CC(C)C1=CC2=C(O)C(O)=C3C(C)(C)CCC[C@]3(C)C2=C(O)C1=O [Compound (2), 5,6-didehydro-7-hydroxy-taxodone] |  |  |  | 1.9 ± 0.4 | 96.2 ± 5.8 |  | IC50 [1]: 9.2 ± 0.6 µM; IC50 [2]: 25.7 ± 1.5 µM; IC50 ([3]; TULAHUEN): 25.7 ± 1.5 µM
CCCCCCCCCCCCCCCCOP(=O)([O-])OCC[N+](C)(C)C [Miltefosine, reference compound] |  | 2.4 ± 0.8 |  |  |  |  | 
Nc1nc(N)nc(Nc2ccc([As]3SCC(CO)S3)cc2)n1 (stereo not shown) [Melarsoprol, reference compound] |  |  |  |  |  |  | IC50 [4]: 0.005 ± 0.001 µM
CC/C(=C(\c1ccccc1)c1ccc(OCCN(C)C)cc1)c1ccccc1 [Tamoxifen, reference compound] |  |  |  |  | 10.5 ± 2.5 |  | 
O=C(Cn1ccnc1[N+](=O)[O-])NCc1ccccc1 [Benznidazole, reference compound] |  |  | 2.5 ± 0.6 |  |  |  | 
CC(C)c1cc2c(c(O)c1O)C13CCCC(C)(C)C1CC2OC3 (stereo not shown) [Compound (4), 20-deoxocarnosol] | 11.1 ± 0.6 | 25.6 ± 1.2 | 25.6 ± 1.2 | 6 ± 0.8 |  | 6 to 31.6 | IC50 at 72 h [5]: 6 ± 0.3 µM
CC(C)C1=CC2=CC(=O)[C@H]3C(C)(C)CCC[C@]3(C)C2=C(O)C1=O [Compound (3), taxodione] | 8.5 ± 0.7 | 25.7 ± 2.3 | 25.7 ± 2.3 | 9.8 ± 0.7 | 22.6 ± 1.3 | 6 to 31.6 | P. falciparum SI (selectivity index) ([1]; versus MRC-5 cytotoxicity): 2.6; T. brucei SI (selectivity index) [4]: 2.3
